Test results as given in patent US20110045593A1, “Transgenically mitigating the establishment and spread of transgenic algae in natural ecosystems by suppressing the activity of carbonic anhydrase” (priority 2009, published 2011).

Tests used:
[1] = tested on: Nannochloropsis oculata CS-179; assay: Photosynthetic carbon dioxide fixation measured as oxygen evolution with an oxygen electrode, carbonic anhydrase suppressed by inhibitor; assay type: cell-based; details: 300 μM, incubated just prior to measurement
Experimental: Cultures were incubated with ethoxyzolamide just prior to measurement.
Measurements of O2 concentrations are performed using a Clark type O2 electrode (Pasco Scientific, Roseville, Calif., USA). 20 ml of cell suspension corresponding to 15 μg chlorophyll/ml are placed in the O2 electrode chamber, at relevant temperature. Cells are exposed to various light intensities and net O2 production is measured. Dark incubations are performed in air-tight vessels to follow light-independent O2 consumption.

[2] = tested on: non-transgenic algal or cyanobacterial cells; assay: In vivo pds assay: culture in fluorochloridone solution; assay type: cell-based; details: 0.1 μM in standard algae or cyanobacteria culture media
Experimental: In vivo pds assay. Putative transformed algal or cyanobacterial cells were cultured in a solution of 0.1 μM fluorochloridone in standard algae or cyanobacteria culture media.

SMILES | photosynthetic carbon dioxide fixation (measured as oxygen evolution) ([1]; high CO2 concentration (FIG. 1A; more than 2%)) | photosynthetic carbon dioxide fixation (measured as oxygen evolution) ([1]; high CO2 concentration (FIG. 1A; more than 2%), listed as inhibitor) | photosynthetic carbon dioxide fixation (measured as oxygen evolution) ([1]; low CO2 concentration (FIG. 1B)) | photosynthetic carbon dioxide fixation (measured as oxygen evolution) ([1]; low CO2 concentration (FIG. 1B), listed as inhibitor) | killing of non-transgenic cells [2]
CCOc1ccc2nc(S(N)(=O)=O)sc2c1 [ethoxyzolamide, 6-ethoxy-2-benzothiazolesulfonamide] | no effect | no difference in photosynthesis | decreases photosynthetic carbon dioxide fixation | severely deficient in photosynthesis | 
O=C1C(Cl)C(CCl)CN1c1cccc(C(F)(F)F)c1 (centres unmarked) [fluorochloridone] |  |  |  |  | all non-transgenic cells are killed
